Laboratory results: US20120283802A1, “FAR-INFRARED RADIATION IN USE OF IMPROVING PATENCY OF ARTERIOVENOUS FISTULA, DECREASING FAILURE OF ARTERIOVENOUS FISTULA MATURATION, AND PREVENTING AND/OR AMELIORATING PERIPHERAL ARTERY DISEASES” (priority 2007, published 2012)

Assays:
[1] = system: VCAM-1 expression in HUVECs; test: TNF-α-induced VCAM-1 expression in HUVECs, western blot; assay type: cell-based, Human
Method: Human umbilical vein endothelial cells (HUVEC) (Walkersville, Md.) were serially cultured on gelatin-coated dishes and propagated in M199 medium supplemented with 20% bovine calf serum, 2 mM L-glutamine, 50 μg/ml endothelial cell growth factor, 90 μg/ml heparin, and 100 U/ml of penicillin and streptomycin. The cells were treated with FIR for 10 min, 20 min, 40 min using WS™ TY101 FIR emitter (WS Far Infrared Medical Technology Co., Ltd., Taipei, Taiwan). The top emitter was set at a height of 25 cm above the surface of the cells. After FIR treatment, the cells were collected at 0 h, 2 h, 4 h, 6 h, 24 h, and 48 h, and then the expression of HO-1 was analyzed by western blot and quantified by laser densitometry. The cells were lysed in a sample buffer (125 mM Tris [pH 6.8], 12.5% glycerol, 2% SDS, 50 mM sodium fluoride, and trace bromophenol blue) and proteins were separated by SDS-PAGE. Following transfer to a nitrocellulose membrane, blots were blocked with PBS and nonfat milk (5%) and then incubated with antibodies directed against HO-1 (1:500). Membranes were then washed in PBS, incubated with horseradish peroxidase-conjugated goat anti-rabbit or anti-goat antibody and developed with commercial chemoluminescence reagents (Amersham, Arlington Heights, Ill.). […]
The expression of VCAM-1 was analyzed under different combinations of TNFα, FIR, HO-1 inhibitor by a western blot. […]

HO-1 expression = HO-1 expression by western blot quantified by laser densitometry; assay type: cell-based, Human; details: relative to control cells; SnPP 20 μM per Table 2
Method: Human umbilical vein endothelial cells (HUVEC) (Walkersville, Md.) were serially cultured on gelatin-coated dishes and propagated in M199 medium supplemented with 20% bovine calf serum, 2 mM L-glutamine, 50 μg/ml endothelial cell growth factor, 90 μg/ml heparin, and 100 U/ml of penicillin and streptomycin. The cells were treated with FIR for 10 min, 20 min, 40 min using WS™ TY101 FIR emitter (WS Far Infrared Medical Technology Co., Ltd., Taipei, Taiwan). The top emitter was set at a height of 25 cm above the surface of the cells. After FIR treatment, the cells were collected at 0 h, 2 h, 4 h, 6 h, 24 h, and 48 h, and then the expression of HO-1 was analyzed by western blot and quantified by laser densitometry. […]
U937 cells were classified into 10 groups (F, T, TF, STF, HTF, NTF, S, H, N, or C) according to the combination of different treatment, and the experimental conditions of groups are listed in Table 2. […] After 1 hour of incubation, nonadherent monocytes were removed by PBS washing and the radioactivity associated with adherent cells were quantified by scintillation spectrometry after lysis with 0.2% SDS/0.2 N NaOH. Additionally, the expression of HO-1 was analyzed by western blot and quantified by laser densitometry. […]

With `C=Cc1c2[n-]c(c1C)/C=c1\[n-]/c(c(C)c1C=C)=C\c1[n-]c(c(CCC(=O)O)c1C)/C=c1\[n-]c(c(C)c1CCC(=O)O)=C2.[Sn+4]` [SnPP, tin protoporphyrin] the “FIR-induced inhibitory effect of VCAM-1 expression” value ([1]; TNF-α 100 ng/ml + 40 min FIR, SnPP 10 μM (group 3) and 20 μM (group 4), higher expression at 20 μM) was “reversed”, the “expression of VCAM-1” value ([1]; single treatment with SnPP 20 μM, without pre-treatment with TNF-α (group 6)) was “did not induce” and the “HO-1 expression, of that of the control cells” value (HO-1 expression) was “approximately 20%”.
